According to the supplement of paper PMC13380429:

Tests used:
Conditions in all cases: 72 h
Caco-2 [1] = assay: cell viability relative to DMSO; higher = less toxic
Calu-3 [2] = assay: as above
HepG2 [3] = assay: as above
U2OS [4] = assay: as above
Vero E6 [5] = assay: as above
Caco-2 [6] = assay: relative viability EC50 (midpoint between 100% and the lowest measured viability); higher = less toxic
Calu-3 [7] = assay: as above
HepG2 [8] = assay: as above
U2OS [9] = assay: as above
Vero E6 [10] = assay: as above
Caco-2 [11] = assay: drug sensitivity score (DSS) for viability; higher = more toxic; extreme values may be limits of the assay
Calu-3 [12] = assay: as above
HepG2 [13] = assay: as above
U2OS [14] = assay: as above
Vero E6 [15] = assay: as above

Compound	cell viability (Caco-2 [1]; 1 nM) [%]	cell viability (Caco-2 [1]; 10 nM) [%]	cell viability (Caco-2 [1]; 100 nM) [%]	cell viability (Caco-2 [1]; 1000 nM) [%]	cell viability (Caco-2 [1]; 10000 nM) [%]	cell viability (Calu-3 [2]; 1 nM) [%]	cell viability (Calu-3 [2]; 10 nM) [%]	cell viability (Calu-3 [2]; 100 nM) [%]	cell viability (Calu-3 [2]; 1000 nM) [%]	cell viability (Calu-3 [2]; 10000 nM) [%]	cell viability (HepG2 [3]; 1 nM) [%]	cell viability (HepG2 [3]; 10 nM) [%]	cell viability (HepG2 [3]; 100 nM) [%]	cell viability (HepG2 [3]; 1000 nM) [%]	cell viability (HepG2 [3]; 10000 nM) [%]	cell viability (U2OS [4]; 1 nM) [%]	cell viability (U2OS [4]; 10 nM) [%]	cell viability (U2OS [4]; 100 nM) [%]	cell viability (U2OS [4]; 1000 nM) [%]	cell viability (U2OS [4]; 10000 nM) [%]	cell viability (Vero E6 [5]; 1 nM) [%]	cell viability (Vero E6 [5]; 10 nM) [%]	cell viability (Vero E6 [5]; 100 nM) [%]	cell viability (Vero E6 [5]; 1000 nM) [%]	cell viability (Vero E6 [5]; 10000 nM) [%]	relative viability EC50 (Caco-2 [6]) [µM]	relative viability EC50 (Calu-3 [7]) [µM]	relative viability EC50 (HepG2 [8]) [µM]	relative viability EC50 (U2OS [9]) [µM]	relative viability EC50 (Vero E6 [10]) [µM]	drug sensitivity score (Caco-2 [11])	drug sensitivity score (Calu-3 [12])	drug sensitivity score (HepG2 [13])	drug sensitivity score (U2OS [14])	drug sensitivity score (Vero E6 [15])
CC(C)[C@](O)(c1ccc2cc(OC(F)F)c(OC(F)F)cc2c1)c1c[nH]nn1 [VT-464]	93.3	103	105	95.1	88.3	104	101	93.2	93	96.5	101	104	98.1	109	90.8	96.3	101	99.2	102	93	98.8	103	99.3	98.2	94.5	> 10	> 10	> 10	> 10	> 10	0.2	0	0	0	0
CCC(=O)OCC(=O)[C@@]1(OC(=O)CC)[C@H](C)C[C@H]2[C@H]3[C@H]([C@@H](O)C[C@@]21C)[C@@]1(C)C=CC(=O)C=C1C[C@H]3Cl [alclometasone-dipropionate]	97.3	101	99.7	94.7	96.8	96	88.1	90.2	95.6	97.6	103	101	112	90.4	91.1	97.2	97	91.7	96.6	90.8	108	101	104	98	106	> 10	> 10	> 10	> 10	> 10	0	0	0	0	0
CNC(=O)[C@@H](c1ccccc1)N1CCc2cc(OC)c(OC)cc2[C@@H]1CCc1ccc(C(F)(F)F)cc1 [almorexant]	92.1	99.3	96.1	108	76	94.3	91.6	94.4	95.9	98.4	102	103	99.5	94.2	94.1	94.7	104	91.2	99.4	92.6	97.4	93	95.4	92.3	109	> 10	> 10	> 10	> 10	> 10	0.6	0	0	0	0
COc1cc(NS(C)(=O)=O)ccc1Nc1c2ccccc2nc2ccccc12 [amsacrine]	101	90.9	97.3	91.6	14.3	105	93.7	80.3	61.5	12.3	87.4	89.9	78.5	48.8	29	103	98.1	99.5	96.9	37.2	93	89.3	94.6	65.2	41.7	2.35	0.866	0.241	2.79	0.677	6.1	10.3	12.6	3.9	7.4
COc1cc(C(C)=O)ccc1O [apocynin]	104	94.2	100	86.8	93.9	95.2	89.6	91.5	89.5	105	95.8	95.8	104	98.8	96.8	99.8	97.9	101	96.2	98.2	97.8	100	96.6	98.8	93.6	> 10	> 10	> 10	> 10	> 10	0	0	0	0	0
CC(C)(C)NCC(O)CSc1nc(-c2ccc(C(N)=O)s2)cs1 (stereo not given) [arotinolol]	105	104	90.6	106	107	102	98.4	107	94.1	99.9	88.7	96.9	100	92.8	104	96	100	99.9	102	94.6	103	98.1	106	108	98.4	> 10	> 10	> 10	> 10	> 10	0	0	0	0	0
CO[C@H]1O[C@@H]2O[C@@]3(C)CC[C@H]4[C@H](C)CC[C@@H]([C@H]1C)[C@@]24OO3 [artemether]	95.4	94.5	97.3	86.6	86.2	106	108	96.3	101	96.5	97.6	101	103	92.1	87.8	99.1	97.1	101	96.6	94.4	103	106	92.1	95.9	96.9	> 10	> 10	> 10	> 10	> 10	0.4	0	0.4	0	0
CCOc1nc2cccc(C(=O)O)c2n1Cc1ccc(-c2ccccc2-c2noc(=O)[nH]2)cc1 [azilsartan]	103	91.4	91.9	103	95.7	94.2	98.2	96	93	91.5	93.5	103	102	108	102	102	93.6	99.5	93.3	97.5	99	102	98.1	103	94.3	> 10	> 10	> 10	> 10	> 10	0	0	0	0	0
COc1ccc(NC(=O)c2ccc(C(=N)N(C)C)cc2)c(C(=O)Nc2ccc(Cl)cn2)c1 [betrixaban]	101	97.5	97.5	97.6	91.5	90.9	101	105	95.1	95.5	98.6	100	105	96.3	100	96.2	100	95.6	100	97.8	98.7	99.1	97.3	96.4	93.9	> 10	> 10	> 10	> 10	> 10	0	0	0	0	0
Cc1ccc(C23CNCC2C3)cc1 (stereo not given) [bicifadine]	103	99	106	110	97.4	115	96	104	105	103	99.7	88.8	100	96.3	94.7	96.8	98.9	103	102	96.4	97.7	93.8	98.8	96.3	99.8	> 10	> 10	> 10	> 10	> 10	0	0	0	0	0
Cn1cc(C2=C(c3cn(CCCSC(=N)N)c4ccccc34)C(=O)NC2=O)c2ccccc21 [bisindolylmaleimide-IX]	100	97.7	101	94.9	25.3	112	96.4	100	91.2	18.1	98.6	104	105	96.8	5.1	105	100	106	103	5.7	91.7	101	89.3	92.6	15	2.61	2.28	2.92	3.32	2.45	4.9	6	5.7	5	5.9
CC(C)(C)OC(=O)c1ncn2c1[C@@H]1CCCN1C(=O)c1c(Br)cccc1-2 [bretazenil]	94	93.9	99.3	96.1	100	90	92.9	98.2	99.8	96	83.1	94.1	95.2	105	103	98.2	98.8	105	92.6	98.2	91.1	100	95.5	96.5	104	> 10	> 10	> 10	> 10	> 10	0	0	0	0	0
CCC(C(=O)O)c1ccc(CC(C)C)cc1 (stereo not given) [butibufen]	102	92.8	103	94.4	99.3	97.1	105	99.9	113	105	107	101	99	110	106	97.4	95.5	97.9	102	104	93.3	92.5	87.6	95.9	105	> 10	> 10	> 10	> 10	> 10	0	0	0	0	0
